The values that follow come from ChEMBL document CHEMBL1133275, “Synthesis of the nucleoside moiety of liposidomycins: elucidation of the pharmacophore of this family of MraY inhibitors” (Bioorg Med Chem Lett, 2000).

The nature of experiment [1]: Inhibitory activity of compound was determined against bacterial translocase.
A short description of experiment [2]: The inhibitory activity determined by using toluene-permeabilized cells of Escherichia coli and the specific nucleoside substrate of the translocase UMA5.

On to `CC(=O)N[C@H]1[C@@H](O[C@@H]2O[C@H](CC(O)[C@H]3O[C@@H](n4ccc(=O)[nH]c4=O)[C@H](O)[C@@H]3O)[C@H](O)[C@H](O)[C@H]2NC(=O)/C=C/CC(C)C)O[C@H](CO)[C@@H](N)[C@@H]1O` (stereo not given in full) [TUNICAMYCIN], for which the IC50 in experiment [1] came out at 0.48 µM.
Consider `NC[C@H]1O[C@@H](O[C@H](CO)[C@H]2O[C@@H](n3ccc(=O)[nH]c3=O)[C@H](O)[C@@H]2O)[C@H](O)[C@@H]1O`, for which, in experiment [1], the IC50 stood at 5 µM.
For `NC[C@H]1O[C@@H](OC[C@H]2O[C@@H](n3ccc(=O)[nH]c3=O)[C@H](O)[C@@H]2O)[C@H](O)[C@@H]1O`, the IC50 in experiment [2] came out at 50 µM.
In the case of `NC[C@H]1O[C@@H](O[C@@H](CO)[C@H]2O[C@@H](n3ccc(=O)[nH]c3=O)[C@H](O)[C@@H]2O)[C@H](O)[C@@H]1O`, the IC50 in experiment [1] amounted to 425 µM.
In experiment [1], `CSCCC(NC(=O)NC(Cc1cccc(O)c1)C(=O)O)C(=O)NC(C(=O)N/C=C1/CC(O)C(N2CCC(=O)NC2=O)O1)C(C)N(C)C(=O)C(N)Cc1cccc(O)c1` (stereo not given) registered an IC50 of 0.065 µM.
